From paper PMC5085761 (International Journal of Molecular Sciences, 2016) come the findings set out here.

One data set deals with T1, OATP1B3 (Homo sapiens, UniProt Q9NPD5).
T1 construct: host or cells: HEK293
T1 sequence (Q9NPD5 1-702): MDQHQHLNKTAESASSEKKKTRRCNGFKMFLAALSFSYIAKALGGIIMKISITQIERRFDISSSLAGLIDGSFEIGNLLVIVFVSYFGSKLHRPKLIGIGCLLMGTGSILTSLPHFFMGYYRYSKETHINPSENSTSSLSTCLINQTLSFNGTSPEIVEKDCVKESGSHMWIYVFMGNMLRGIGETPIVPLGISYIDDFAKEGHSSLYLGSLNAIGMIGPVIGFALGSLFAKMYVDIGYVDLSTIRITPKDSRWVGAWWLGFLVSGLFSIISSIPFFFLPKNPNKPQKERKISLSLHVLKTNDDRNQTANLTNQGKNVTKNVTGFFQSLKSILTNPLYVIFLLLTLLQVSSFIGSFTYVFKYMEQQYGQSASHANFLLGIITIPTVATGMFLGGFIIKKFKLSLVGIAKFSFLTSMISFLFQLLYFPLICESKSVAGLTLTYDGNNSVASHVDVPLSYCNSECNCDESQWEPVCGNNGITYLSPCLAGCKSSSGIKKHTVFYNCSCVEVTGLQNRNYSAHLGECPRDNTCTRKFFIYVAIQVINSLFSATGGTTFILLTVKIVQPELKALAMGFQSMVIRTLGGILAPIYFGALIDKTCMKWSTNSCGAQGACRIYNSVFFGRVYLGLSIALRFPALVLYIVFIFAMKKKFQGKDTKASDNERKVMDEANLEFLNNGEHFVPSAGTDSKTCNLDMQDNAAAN
Kind of data set: [14C]fluciclovine uptake by OATP1B3-expressing cells. The class given is in vitro ADME. The following applies: OATP1B3 cells vs mock cells. How it is done:
For the SLC transporter experiments, Mock Flp-in-293 cells (Flp/mock), OAT1-expressing Flp-in-293 cells (Flp/OAT1), mock HEK293 cells (HEK/mock), and OATP1B3-expressing HEK293 cells (HEK/OATP1B3) were obtained from Kanazawa University (Ishikawa, Japan). Briefly, Flp-in-293 and HEK293 cells were transfected with the appropriate plasmid DNA and selected using antibiotics (hygromycin or G-418). All cell lines were cultured in DMEM (Life Technologies Japan) supplemented with 10% (v/v) fetal bovine serum (American Type Culture Collection) and antibiotics (100 U/mL penicillin and 100 μg/mL streptomycin (Life Technologies Japan) for mock cells, 0.2 mg/mL hygromycin for Flp/OAT1 cells, and 1.2 mg/mL G-418 (Roche Diagnostics K.K., Tokyo, Japan) for HEK/OATP1B3 cells) at 37 °C under an atmosphere containing 5% CO2. […]
The experiments were performed as described previously, with minor modifications. […] The cells were lysed in 0.3 mL of 0.1N NaOH at room temperature, after which the radioactivity of each aliquot was measured as described above. The protein concentration of the cell lysate was determined with a VersaMax microplate reader (Molecular Devices Japan K.K., Osaka, Japan) or SpectraMax i3x (Molecular Devices Japan K.K.; only for OATP1B1) using a BCA Protein Assay Kit (Thermo Fisher Scientific, Kanagawa, Japan). Tracer uptake was expressed as pmol/mg protein. […]

A further data set deals with T2, human BCRP (Homo sapiens, UniProt Q9UNQ0).
T2 construct: purchased GenoMembrane Co., Ltd. (Kanagawa, Japan); host or cells: Sf9
T2 sequence (Q9UNQ0 1-655): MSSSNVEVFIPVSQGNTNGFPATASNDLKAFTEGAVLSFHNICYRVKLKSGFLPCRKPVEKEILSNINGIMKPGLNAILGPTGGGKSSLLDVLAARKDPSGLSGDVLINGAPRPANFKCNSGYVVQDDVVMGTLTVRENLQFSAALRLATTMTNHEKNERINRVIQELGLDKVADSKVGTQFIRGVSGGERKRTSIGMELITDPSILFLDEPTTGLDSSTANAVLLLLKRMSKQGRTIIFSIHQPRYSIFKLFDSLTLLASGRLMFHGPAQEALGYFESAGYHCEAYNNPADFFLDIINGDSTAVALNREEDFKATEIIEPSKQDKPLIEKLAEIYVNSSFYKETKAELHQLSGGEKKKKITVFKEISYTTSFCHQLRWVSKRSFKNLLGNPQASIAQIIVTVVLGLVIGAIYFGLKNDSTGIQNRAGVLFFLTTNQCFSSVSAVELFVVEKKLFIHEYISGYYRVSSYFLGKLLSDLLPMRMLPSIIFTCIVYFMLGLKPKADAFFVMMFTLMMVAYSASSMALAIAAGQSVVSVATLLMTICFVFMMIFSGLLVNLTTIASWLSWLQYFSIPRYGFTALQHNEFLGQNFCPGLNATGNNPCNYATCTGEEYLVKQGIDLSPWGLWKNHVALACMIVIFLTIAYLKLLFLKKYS
Kind of data set: Inhibition of tracer uptake in BCRP-expressing vesicles. The class given is in vitro ADME. The following applies: ES 0.1 µM, 100 µM–12.5 mM fluciclovine. How it is done: For ABC transporters, experimental kits containing Sf9-derived vesicles with high expression levels of human P-gp, MRP4, BCRP, and each ABC transporter (including buffer, ATP/AMP solution, and glutathione) were purchased from GenoMembrane Co., Ltd. (Kanagawa, Japan).
Vesicular transport assays were carried out according to the manufacturer’s protocol. […] The reaction was started by suspending 50 μg of vesicles (10 μL) in 40 μL of the reaction buffer. After incubation for an appropriate period of time, the reaction was stopped by the addition of ice-cold stop buffer (40 mM MOPS-Tris and 70 mM KCl; pH 7.0), after which the solution was filtered through a 0.45 μm HA filter (Millipore Corp., Billerica, MA, USA) using suction, and was washed twice in 5 mL of ice-cold stop buffer. The radioactivity of the filter was measured with a Tri-Carb 2910TR liquid scintillation counter (PerkinElmer) using Ultima Gold (PerkinElmer). The amount of tracer uptake was normalized to the membrane protein amount described in the product information sheets.

SMILES strings stand for the structures.

`N[14C]1(C(=O)O)CC(F)C1` (stereo not drawn) [[^14C]fluciclovine, trans-1-amino-3-fluoro[1-^14C]cyclobutanecarboxylic acid]: the drug transporter-mediated uptake entry on OATP1B3 was “negligible”.
In the case of `N[C@]1(C(=O)O)C[C@@H](F)C1` [fluciclovine], at human BCRP, the “inhibition of transport of BCRP-specific substrate [3H]estrone-3-sulfate” value was “does not inhibit”.
